Measurements published in US4863902A, “Treatment of cancer” (Wakunaga Seiyaku Kabushiki Kaisha, priority 1985, dated 1989).

How the values were obtained:
[1] = Body weight (minus tumor weight) of Colon 26 bearing mice; assay type: in vivo, mouse; settings: Experimental Example 5; 150 mg/Kg 5-FU, 100 μg/Kg hEGF subcutaneous
Description: That is, in Experimental Example 1, with the value of the body weight of the experimental animal immediately before administration of the drug from which the tumor weight is detracted as being 100, the ratio of the value of the total body weight of the experimental animal from which the tumor weight is detracted on the respective days after administration of the drug relative to this weight was calculated to obtain the results shown in FIG. 4. The symbols in the Figure are the same as in Experimental Example 1.

[2] = tested on: P388/5-FU (mouse leukemia resistant to 5-FU); experiment: Tumor weight of solid tumor of 5-FU resistant mouse leukemia in CDF1 mice; assay type: in vivo; settings: 5-FU 150 mg/Kg
Excerpt: CDF1 strain male mice were employed. The feeding conditions, etc., were the same as in Experimental Example 1.
Of P388 (mouse leukemia), the strain having chemical resistance to 5-FU (P388/5-FU) was previously grown in the abdomen of CDF1 mouse. Eight days after transplantation into the abdomen, ascites (containing tumor cells) were collected, diluted with a liquid medium and transplanted subcutaneously at the axilla of mouse in 3×10^6 cells per mouse. Eight days after transplantation, the size of tumor was measured according to the same method as in Example 1 (Colon 26) and the tumor weight was calculated.
The grouping operation of mouse on initiation of experiments was conducted in the same manner as in Experimental Example 1. As for administration of compounds, the same procedure as in Experimental Example 1 was used. However, the administration was effected twice on the day 1 and the day 3.

[3] = tested on: mouse ovarian tumor M5076; experiment: Tumor weight of solid tumor of mouse ovarian tumor in BDF1 mice; assay type: in vivo; settings: Table 10, 5-FU 150 mg/Kg, hEGF, [Leu^21 ]-hEGF or hEGF-II 100 μg/Kg subcutaneous, average ± standard error
Description: BDF1 male mice were employed. The feeding conditions were the same as in Experimental Example 1.
Mouse ovarian tumor M5076 was transplanted subcutaneously at the axialla of mouse in 1-2×10^6 cells per mouse. 12 days after transplantation, the size of tumor was measured according to the same method as in Experimental Example 1 (Colon 26) and the tumor weight was calculated.
The grouping operation on initiation of Experiments was conducted in the same manner as in Experimental Example 1. The compounds were administered in the same manner as in Experimental Example 9.
The experiment was carried out in the samme manner as in Experimental Examples 1, 7 and as in Experimental Example 17 for others.

[4] = tested on: Colon adenocarcinoma 38 (mouse colon adenocarcinoma); experiment: Tumor weight of transplanted Colon adenocarcinoma 38 in C57BL/6 mice; assay type: in vivo; settings: for Tumor weight (day 1 = 100): 5-FU 150 mg/Kg
Description: Colon adenocarcinoma 38 (mouse colon adenocarcinoma) was minced into pieces and about 0.1 to 0.2 ml thereof was transplanted subcutaneously on the right side of mouse abdomen by a cell transplanting needle (trocker). Eleven days after transplantation, the size of tumor, namely longer diameter (a mm) and shorter diameter (b mm) of tumor were measured and the tumor weight was calculated according to the formula shown below [Instruction 14 (NCI) 1980].
(§1) Tumor weight (mg)=ab^2 /2
In the Table, days indicate the experimental days with the day of compound administration being as the day 1, and the tumor weight immediately before administration of compound of day 1 is made 100. The respective values show the average value ± standard error of case numbers of 10 to 20, in the Table, the marks of (*), * and *** indicate the statistical significance difference of the combined administration group relative to the 5-FU single administration group (the definition of P is as defined above).

[5] = tested on: Colon adenocarcinoma 26 (mouse colon adenocarcinoma); experiment: Tumor weight of transplanted Colon adenocarcinoma 26 in BALB/c mice; assay type: in vivo; settings: Table 5, 5-FU 150 mg/Kg, hEGF-II 100 μg/Kg subcutaneous, average ± standard error of 6-12 mice
Description: After BALB/c mice were preliminarily fed in a thermostat (23°±0.5° C.), humidistat (60±5%) room for 1 week, those which appear to be healthy weighing 18-20 g were provided for the present experiment in 6-12 mice per 1 group.
Colon adenocarcinoma 26 (mouse colon adenocarcinoma) was minced into pieces and about 0.1 to 0.2 ml thereof was transplanted subcutaneously on the right side of mouse abdomen by a cell transplanting needle (trocker). Six days after transplantation, the size of tumor, namely longer diameter (a mm) and shorter diameter (b mm) of tumor were measured and the tumor weight was calculated according to the formula shown below [Instruction 14 (NCI) 1980].
as §1
Before carrying out experiments, tumor weights were measured immediately before administration of the compounds and the mice were grouped into 3 groups by use of random numbers so that there may be no difference in average value of the tumor weights on initiation of experiments between the respective groups to make even the average values of tumor weights of the respective groups, and thereafter the compounds were administered to the respective groups.
In this FIGURE, the axis of abscissa indicates the experimental days with the day of compound administration being the day 1, and the axis of ordinate indicates tumor cell growth ratio which is the ratio of the tumor weight after elapse of the respective days relative to the tumor weight on the day 1 as being 100%.

Structure (SMILES): O=c1[nH]cc(F)c(=O)[nH]1 [5-FU, 5-fluorouracil]
- body weight reduction inhibiting effect (body weight minus tumor weight, FIG. 4) [1]: no inhibiting effect of weight reduction could be recognized
- Tumor weight (day 1 = 100) ([2]; Table 2, day 2, hEGF 100 μg/Kg subcutaneous on day 1 and day 3, average ± standard error of 9 mice): 126.2 ± 5.5
- Tumor weight (day 1 = 100) ([2]; Table 2, day 3, hEGF 100 μg/Kg subcutaneous on day 1 and day 3, average ± standard error of 9 mice): 232.7 ± 15.9
- Tumor weight (day 1 = 100) ([2]; Table 2, day 4, hEGF 100 μg/Kg subcutaneous on day 1 and day 3, average ± standard error of 9 mice): 280.0 ± 31.7
- Tumor weight (day 1 = 100) ([2]; Table 3, day 2, [Leu^21 ]-hEGF or hEGF-II 100 μg/Kg subcutaneous on day 1 and day 3, average ± standard error): 121.2 ± 10.5
- Tumor weight (day 1 = 100) ([2]; Table 3, day 3, [Leu^21 ]-hEGF or hEGF-II 100 μg/Kg subcutaneous on day 1 and day 3, average ± standard error): 232.7 ± 15.9
- Tumor weight (day 1 = 100) ([2]; Table 3, day 4, [Leu^21 ]-hEGF or hEGF-II 100 μg/Kg subcutaneous on day 1 and day 3, average ± standard error): 280.0 ± 31.7
- Tumor weight (day 1 = 100) ([3]; day 2): 114.7 ± 7.5
- Tumor weight (day 1 = 100) ([3]; day 3): 115.2 ± 8.3
- Tumor weight (day 1 = 100) ([3]; day 4): 134.6 ± 8.9
- Tumor weight (day 1 = 100) ([3]; day 5): 187.3 ± 19.3
- Tumor weight (day 1 = 100) ([3]; day 6): 230.1 ± 29.4
- Tumor weight (day 1 = 100) ([4]; Table 1, day 2, hEGF 100 μg/Kg subcutaneous on day 1, average ± standard error): 106.3 ± 31.8
- Tumor weight (day 1 = 100) ([4]; Table 1, day 4, hEGF 100 μg/Kg subcutaneous on day 1, average ± standard error): 84.5 ± 7.0
- Tumor weight (day 1 = 100) ([4]; Table 1, day 5, hEGF 100 μg/Kg subcutaneous on day 1, average ± standard error): 75.4 ± 10.3
- Tumor weight (day 1 = 100) ([4]; Table 1, day 6, hEGF 100 μg/Kg subcutaneous on day 1, average ± standard error): 86.2 ± 9.5
- Tumor weight (day 1 = 100) ([4]; Table 1, day 7, hEGF 100 μg/Kg subcutaneous on day 1, average ± standard error): 121.1 ± 13.0
- Tumor weight (day 1 = 100) ([4]; Table 1, day 8, hEGF 100 μg/Kg subcutaneous on day 1, average ± standard error): 147.3 ± 16.0
- Tumor weight (day 1 = 100) ([4]; Table 1, day 9, hEGF 100 μg/Kg subcutaneous on day 1, average ± standard error): 210.9 ± 22.9
- Tumor weight (day 1 = 100) ([4]; Table 11, day 2, FGF 100 μm/10 ml/Kg subcutaneous, average ± standard error of 6-8 mice): 102.6 ± 6.7
- Tumor weight (day 1 = 100) ([4]; Table 11, day 3, FGF 100 μm/10 ml/Kg subcutaneous, average ± standard error of 6-8 mice): 99.7 ± 7.2
- Tumor weight (day 1 = 100) ([4]; Table 11, day 4, FGF 100 μm/10 ml/Kg subcutaneous, average ± standard error of 6-8 mice): 94.9 ± 8.7
- Tumor weight (day 1 = 100) ([4]; Table 11, day 5, FGF 100 μm/10 ml/Kg subcutaneous, average ± standard error of 6-8 mice): 158.6 ± 22.8
- Tumor weight ratio(%) ([4]; Table 12, day 4 after compound administration, weight before administration = 100, Tegafur 400, 5-FU 150, Mitomycin-C 5, Cisplatin 5 mg/Kg, hIGF-II 50 μg/Kg subcutaneous, average ± standard error of 8-10 mice): 84.5 ± 7.0%
- Tumor weight ratio(%) ([4]; Table 14, hTGFα 100 μg/10 ml/Kg with 5-FU, Tegafur, Mitomycin-C, Adriamycin or Cisplatin, as described for Table 12): 84.6 ± 7.0%
- Tumor weight ratio(%) ([4]; Table 15, day 4 after compound administration, hTGFβ and hEGF 100 μg/Kg with each compound having antitumor action): 103.3 ± 15.4%
- Tumor weight % (average value ± standard error) ([4]; Table 20, 4 days after administration of 5-FU, 5-FU single subcutaneous): 93.9 ± 6.7%
- Tumor weight (day 1 = 100) ([5]; day 2): 121.1 ± 9.6
- Tumor weight (day 1 = 100) ([5]; day 3): 120.4 ± 7.1
- Tumor weight (day 1 = 100) ([5]; day 4): 124.0 ± 9.6
- Tumor weight (day 1 = 100) ([5]; day 5): 122.5 ± 10.7
- Tumor weight (day 1 = 100) ([5]; day 6): 129.7 ± 11.5
- Tumor weight (day 1 = 100) ([5]; day 7): 156.8 ± 14.1
